Test: mn = molality of the nth substance listed, in mol/kg
Conditions: 101 kPa, Liquid; for viscosity: Capillary tube (Ostwald / Ubbelohde) method; for mass density: Vibrating tube method

O=C(O)c1cccnc1 [3-carboxylpyridine] + O
Conditions	mass density, 298.15 K [kg/m3]	mass density, 308.15 K [kg/m3]	mass density, 318.15 K [kg/m3]	viscosity, 298.15 K [mPa·s]	viscosity, 308.15 K [mPa·s]	viscosity, 318.15 K [mPa·s]
m1 = 0.0202	997.92	994.89	991.06	0.8951	0.7224	0.5972
m1 = 0.0365	998.6	995.55	991.69	0.8988	0.725	0.5992
m1 = 0.0529	999.27	996.21	992.33	0.9015	0.7275	0.601
m1 = 0.0695	999.95	996.87	992.96	0.905	0.7308	0.6051
m1 = 0.0863	1000.62	997.52	993.59	0.9088	0.734	0.6074
m1 = 0.1032	1001.3	998.17	994.23	0.9119	0.7368	0.6094

Source: the NIST ThermoML archive (doi:10.1016/j.jct.2016.03.010)
